From paper PMC11434354, “Metabolic and Pharmacokinetic Profiling Studies of N, N-Dimethylaniline-Heliamine in Rats by UHPLC-Q-Orbitrap MS/MS” (Molecules, 2024)
Read-outs that look alike come from different tables or passages of the source.

Assays:
[1] = parameters: method as in doi:10.37547/TAJMSPR/Volume02Issue07-17; conditions: rats, compared with verapamil; cited from earlier work
[2] = Pharmacokinetic study of DH in rats after oral and intravenous administration (non-compartmental analysis); format: in vivo, male Sprague–Dawley (SD) rats; conditions: for MRT last: read-out: MRT0–t; for MRT inf: read-out: MRT0–∞; for half-life: read-out: T1/2 (terminal half-life) (converted)
Description: The Xinjiang Medical University (Xinjiang, China) provided twelve male Sprague–Dawley (SD) rats (weight 200 ± 20 g). The Animal Experimentation Ethics Committee of Xinjiang Medical University gave its approval to all animal experiments. DH was created using a mixture consisting of 2% ethanol, 8% Kolliphor, and 90% distilled water. Twelve rats were selected randomly and divided into two groups. Before administering the oral dose, the rats were fasted for 12 h but were allowed access to water. Each rat in the oral group was orally given 19.2 mg/kg of DH. Blood samples were collected from their ophthalmic veins at 0, 0.25, 0.5, 1, 1.5, 2, 4, 8, 12, and 24 h for the oral study. In the intravenous group, each rat was given an intravenous tail injection of 1.9 mg/kg of DH. Blood was collected from their ocular veins at 0, 0.1, 0.25, 0.5, 0.75, 1, 1.5, 3.4, 7.5, 12, and 24 h for further analysis. The collected plasma was thereafter subjected to centrifugation (14,000 rpm) for 10 min in a 1.5 mL polyethylene collection tube with EDTA. Following centrifugation, the supernatant was stored in a refrigerator at –80 °C.
Rat plasma samples were assessed for DH using a Thermo Fisher Scientific Q Exactive Plus Orbitrap MS and a Dionnex Ultimate 3000 RSL nano System (Thermo Fisher Scientific, Bremen, Germany). Chromatographic separation was performed with a pre-column (1.7 µm) and an ACQUITY UHPLC BEH C18 column (2.1 × 75 mm, 1.7 µm). The procedure utilized a 10 µL injection volume and was carried out for 5 min at 0.2 mL/min isocratic (70%A (0.1% formic acid in water): 30%B (acetonitrile)). The temperature of the RS autosampler was maintained at 10 °C, and the column was set at 35 °C. Positive electrospray ionization (ESI) and the Parallel Reaction Monitor (PRM) mode were employed to identify DH and the IS. AGC targets were set at 1 × 10^6, the maximum iteration time at 100 ms, the spray voltage at 3.2 kV, the capillary temperature at 320 °C, the S-lens RF level at 55, and 10 and 38 for the IS of the high collision dissociation cell of DH were the MS parameters used. The PRM transitions for DH and IS were 313.19/192.10 (m/z) and 400.18/310.12 (m/z), respectively.
Dissolve PK samples were stored at −80 °C at room temperature. We added 10 µL of 30% acetonitrile water and vortexed it for 3 s. We then added 10 µL of IS and vortexed it for 3 s. Then, 300 µL of acetonitrile was added to the above plasma, vortexed for 1 min, and centrifuged for 7 min. The mixture supernatant was collected and blown dry at 40 °C under nitrogen. Blow-dried samples were re-dissolved in 100 μL of 30% acetonitrile in water and centrifuged for 7 min.
Twelve male SD rats, weighing […], were used to perform PK studies on DH. SD rats fasted for 12 h before administration, but the water was freely available. Normal drinking and eating resumed four hours after administration. To study the bioavailability and PK parameters of DH, rats were randomly divided into two groups. The dose administered was 1.9 mg/kg for the intravenous group and 19.2 mg/kg for the oral administration group. Oral bioavailability was calculated using Equation (2) as follows:Oral bioavailability (%) = (AUCp.o. × Dosei.v./AUCi.v. × Dosep. o.) × 100%(2)
The Q Exactive Plus Orbitrap MS data were acquired using the Thermo Xcalibur 4.2. software (Thermo Fisher Scientific, Waltham, MA, USA). The Qual Browser was used to extract ion chromatograms for screening candidate metabolites with a mass tolerance of 5 ppm and a mass precision of 4 decimals. In addition, MS/MS fragment ions were extracted for structural confirmation of candidate metabolites. The Qual Browser was used for the quantification of DH in rat plasma. Pharmacokinetic parameters were processed using the non-compartmental pharmacokinetic data analysis software program of MaS Studio 1.5.2.14 stable (Shanghai Boca Pharmaceutical Technology Co., Shanghai, China). Finally, the results were described as arithmetic mean ± SD.

[3] = Long-term storage stability of DH stock solutions; format: physicochemical
Description: Although acetonitrile precipitates most of the protein, plasma samples contain phospholipids, metabolites, etc., that interfere with the detection of DH and IS. Specificity was mainly examined at DH and IS retention times without interference peaks in blank plasma. In addition, samples tested after administration should not show interfering peaks at the DH and IS peak times. The standard curves were made up of 8 nonzero analyte points, and the linearity was tested. The correlation of peak area (analyte/IS) with the labeled plasma concentration was plotted for regression analysis. This analyte was predicted to have a correlation coefficient (r^2) of more than 0.99 with the corresponding standard curve. The relative standard deviation (RSD) and relative error (RE) values were calculated by measuring six repeated QC samples on the same day to evaluate the intra-day precision and accuracy. Inter-day precision and accuracy were characterized by RSD and RE, respectively. The recoveries were determined by examining the ratio of the peak areas of DH before and after extraction. The matrix effect is the ratio of the peak area of DH added to plasma and DH dissolved in the solvent. The stability evaluation should guarantee that the concentration of the analyte remains unchanged throughout the sample preparation and analysis process, as well as during storage. Stability studies include long-term storage stability at −80 °C (1, 7 and 15 days); repeated freeze–thaw stability; autosampler stability; room temperature stability; and long-term storage stability of stock solutions.

[4] = I.V. 1.9 mg/kg, n = 6, mean ± SD
[5] = P.O. 19.2 mg/kg, n = 6, mean ± SD
[6] = male, Sprague-Dawley, rat, plasma, iv, I.V. 1.9 mg/kg, n = 6, mean ± SD
[7] = male, Sprague-Dawley, rat, plasma, po, P.O. 19.2 mg/kg, n = 6, mean ± SD

COc1cc2c(cc1OC)C(c1ccc(N(C)C)cc1)NCC2 (centres unmarked) [DH, N, N-dimethylaniline-heliamine]
Acute toxicity parameters [1]: more than six times lower than those of verapamil
AUC0–t [2, 4]: 439 ± 30.1 ng·h/mL
AUC0–∞ [2, 4]: 495 ± 36.4 ng·h/mL
Vd (apparent volume of distribution) ([2]; I.V. 1.9 mg/kg, n = 6, mean ± SD, 1.9 mg/kg): 15,514.58 ± 2159.74 mL/kg
AUC0–t [2, 5]: 707 ± 265 ng·h/mL
AUC0–∞ [2, 5]: 748 ± 279 ng·h/mL
CL (clearance) [2, 5]: 30,148.65 ± 15,354.27 mL/h/kg
Vd (apparent volume of distribution) [2, 5]: 126,728.09 ± 56,867.09 mL/kg
Vd ([2]; male, Sprague-Dawley, rat, plasma, iv, 1.9 mg/kg, I.V. 1.9 mg/kg, n = 6, mean ± SD, read-out: Vd (apparent volume of distribution)): 15.1 L/kg
Cmax [2, 6]: 183 ± 33.6 ng/mL
clearance ([2]; male, Sprague-Dawley, rat, plasma, iv, I.V. 1.9 mg/kg, n = 6, mean ± SD, read-out: CL (clearance) (converted)): 64.3 mL/min/kg
MRT last [2, 6]: 2.49 ± 0.33 h
MRT inf [2, 6]: 3.56 ± 0.26 h
half-life [2, 6]: 2.79 ± 0.34 h
bioavailability ([2]; male, Sprague-Dawley, rat, plasma, oral, P.O. 19.2 mg/kg vs I.V. 1.9 mg/kg, read-out: Fabs (absolute oral bioavailability)): 16.1%
Cmax [2, 7]: 121 ± 42.4 ng/mL
Tmax [2, 7]: 1.5 h
MRT last [2, 7]: 4.07 ± 0.34 h
MRT inf [2, 7]: 4.76 ± 0.4 h
half-life [2, 7]: 2.96 ± 0.32 h
Accuracy, Stock solution ([3]; nominal concentration 10 ng/mL): 104.96%
Accuracy, Stock solution ([3]; nominal concentration 100 ng/mL): 99.49%
Accuracy, Stock solution ([3]; nominal concentration 500 ng/mL): 96.24%
